Measured values as given in the NIST ThermoML archive (doi:10.1016/j.jct.2019.02.011).
Numbers after ± are expanded uncertainties.

Test: xn = mol fraction of the nth substance listed
Details: Liquid, Vibrating tube method

COC(=O)OC [dimethyl carbonate] + CO
mass density [kg/m3]
Details | 100 kPa | 5000 kPa | 10000 kPa | 15000 kPa | 20000 kPa | 25000 kPa | 30000 kPa | 35000 kPa | 40000 kPa
303.15 K, x1 = 0.0253 | – | – | – | – | – | – | – | 825.6 ± 1.4 | 829 ± 1.4
303.15 K, x1 = 0.0503 | – | – | – | – | – | – | – | 839.12 ± 1.4 | 842.54 ± 1.4
303.15 K, x1 = 0.0745 | – | – | – | – | – | – | – | 851.58 ± 1.4 | 855.01 ± 1.4
303.15 K, x1 = 0.101 | – | – | – | – | – | – | – | 864.54 ± 1.4 | 867.99 ± 1.4
303.15 K, x1 = 0.1502 | – | – | – | – | – | – | – | 886.72 ± 1.4 | 890.21 ± 1.4
303.15 K, x1 = 0.2059 | – | – | – | – | – | – | – | 909.73 ± 1.4 | 913.3 ± 1.4
303.15 K, x1 = 0.25 | – | – | – | – | – | – | – | 926.34 ± 1.4 | 929.93 ± 1.4
303.15 K, x1 = 0.3004 | – | – | – | – | – | – | – | 943.76 ± 1.5 | 947.37 ± 1.5
303.15 K, x1 = 0.3426 | – | – | – | – | – | – | – | 957.21 ± 1.5 | 960.84 ± 1.5
303.15 K, x1 = 0.3984 | – | – | – | – | – | – | – | 973.63 ± 1.5 | 977.28 ± 1.5
303.15 K, x1 = 0.4514 | – | – | – | – | – | – | – | 987.95 ± 1.5 | 991.62 ± 1.5
303.15 K, x1 = 0.5054 | – | – | – | – | – | – | – | 1001.4 ± 1.5 | 1005.09 ± 1.5
303.15 K, x1 = 0.5509 | – | – | – | – | – | – | – | 1011.94 ± 1.5 | 1015.64 ± 1.5
303.15 K, x1 = 0.6002 | – | – | – | – | – | – | – | 1022.49 ± 1.5 | 1026.2 ± 1.5
303.15 K, x1 = 0.6469 | – | – | – | – | – | – | – | 1031.7 ± 1.5 | 1035.43 ± 1.5
303.15 K, x1 = 0.6993 | – | – | – | – | – | – | – | 1041.37 ± 1.5 | 1045.11 ± 1.5
303.15 K, x1 = 0.7496 | – | – | – | – | – | – | – | 1050.01 ± 1.5 | 1053.76 ± 1.5
303.15 K, x1 = 0.799 | – | – | – | – | – | – | – | 1058.05 ± 1.6 | 1061.82 ± 1.6
303.15 K, x1 = 0.837 | – | – | – | – | – | – | 1060.13 ± 1.6 | 1063.82 ± 1.6 | 1067.59 ± 1.6
303.15 K, x1 = 0.9093 | – | – | – | – | – | – | 1070.62 ± 1.6 | 1074.26 ± 1.6 | 1078.04 ± 1.6
303.15 K, x1 = 0.9239 | – | – | – | – | – | – | 1072.65 ± 1.6 | 1076.3 ± 1.6 | 1080.08 ± 1.6
303.15 K, x1 = 0.9575 | – | – | – | – | – | – | 1077.23 ± 1.6 | 1080.88 ± 1.6 | 1084.67 ± 1.6
303.15 K, x1 = 0.9861 | – | – | – | – | – | – | 1081.06 ± 1.6 | 1084.71 ± 1.6 | 1088.51 ± 1.6
303.15 K, x1 = 1 | – | – | – | – | – | – | 1082.9 ± 0.61 | 1086.6 ± 0.63 | 1090.4 ± 0.64
308.15 K, x1 = 0.0253 | 791.22 ± 1.4 | 795.98 ± 1.4 | 800.77 ± 1.4 | 805.37 ± 1.4 | 809.72 ± 1.4 | 814 ± 1.4 | 817.9 ± 1.4 | 821.58 ± 1.4 | 825.25 ± 1.4
308.15 K, x1 = 0.0503 | 804.54 ± 1.4 | 809.3 ± 1.4 | 814.1 ± 1.4 | 818.7 ± 1.4 | 823.06 ± 1.4 | 827.34 ± 1.4 | 831.25 ± 1.4 | 834.92 ± 1.4 | 838.6 ± 1.4
308.15 K, x1 = 0.0745 | 816.8 ± 1.4 | 821.56 ± 1.4 | 826.37 ± 1.4 | 831.02 ± 1.4 | 835.38 ± 1.4 | 839.68 ± 1.4 | 843.59 ± 1.4 | 847.26 ± 1.4 | 850.9 ± 1.4
308.15 K, x1 = 0.101 | 829.61 ± 1.4 | 834.41 ± 1.4 | 839.23 ± 1.4 | 843.89 ± 1.4 | 848.26 ± 1.4 | 852.56 ± 1.4 | 856.52 ± 1.4 | 860.19 ± 1.4 | 863.84 ± 1.4
308.15 K, x1 = 0.1502 | 851.5 ± 1.4 | 856.36 ± 1.4 | 861.2 ± 1.4 | 865.86 ± 1.4 | 870.28 ± 1.4 | 874.59 ± 1.4 | 878.57 ± 1.4 | 882.29 ± 1.4 | 885.94 ± 1.4
308.15 K, x1 = 0.2059 | 874.17 ± 1.4 | 879.02 ± 1.4 | 883.88 ± 1.4 | 888.55 ± 1.4 | 892.98 ± 1.4 | 897.3 ± 1.4 | 901.3 ± 1.4 | 905.01 ± 1.4 | 908.67 ± 1.4
308.15 K, x1 = 0.25 | 890.57 ± 1.4 | 895.46 ± 1.4 | 900.33 ± 1.4 | 905.01 ± 1.4 | 909.44 ± 1.4 | 913.77 ± 1.4 | 917.78 ± 1.4 | 921.49 ± 1.4 | 925.16 ± 1.4
308.15 K, x1 = 0.3004 | 907.81 ± 1.4 | 912.71 ± 1.4 | 917.59 ± 1.4 | 922.27 ± 1.4 | 926.71 ± 1.4 | 931.05 ± 1.4 | 935.06 ± 1.4 | 938.77 ± 1.4 | 942.45 ± 1.5
308.15 K, x1 = 0.3426 | 921.16 ± 1.4 | 926.05 ± 1.4 | 930.95 ± 1.4 | 935.63 ± 1.4 | 940.07 ± 1.4 | 944.37 ± 1.5 | 948.39 ± 1.5 | 952.1 ± 1.5 | 955.78 ± 1.5
308.15 K, x1 = 0.3984 | 937.46 ± 1.4 | 942.41 ± 1.4 | 947.31 ± 1.5 | 952 ± 1.5 | 956.44 ± 1.5 | 960.75 ± 1.5 | 964.78 ± 1.5 | 968.49 ± 1.5 | 972.13 ± 1.5
308.15 K, x1 = 0.4514 | 951.72 ± 1.5 | 956.66 ± 1.5 | 961.58 ± 1.5 | 966.27 ± 1.5 | 970.72 ± 1.5 | 975.04 ± 1.5 | 979.08 ± 1.5 | 982.78 ± 1.5 | 986.43 ± 1.5
308.15 K, x1 = 0.5054 | 965.11 ± 1.5 | 970.05 ± 1.5 | 974.93 ± 1.5 | 979.62 ± 1.5 | 984.08 ± 1.5 | 988.4 ± 1.5 | 992.45 ± 1.5 | 996.15 ± 1.5 | 999.81 ± 1.5
308.15 K, x1 = 0.5509 | 975.56 ± 1.5 | 980.5 ± 1.5 | 985.39 ± 1.5 | 990.08 ± 1.5 | 994.54 ± 1.5 | 998.87 ± 1.5 | 1002.92 ± 1.5 | 1006.62 ± 1.5 | 1010.28 ± 1.5
308.15 K, x1 = 0.6002 | 986.01 ± 1.5 | 990.95 ± 1.5 | 995.85 ± 1.5 | 1000.49 ± 1.5 | 1004.95 ± 1.5 | 1009.29 ± 1.5 | 1013.4 ± 1.5 | 1017.09 ± 1.5 | 1020.76 ± 1.5
308.15 K, x1 = 0.6469 | 995.19 ± 1.5 | 1000.13 ± 1.5 | 1005.03 ± 1.5 | 1009.68 ± 1.5 | 1014.14 ± 1.5 | 1018.48 ± 1.5 | 1022.55 ± 1.5 | 1026.24 ± 1.5 | 1029.87 ± 1.5
308.15 K, x1 = 0.6993 | 1004.82 ± 1.5 | 1009.76 ± 1.5 | 1014.62 ± 1.5 | 1019.27 ± 1.5 | 1023.74 ± 1.5 | 1028.03 ± 1.5 | 1032.11 ± 1.5 | 1035.8 ± 1.5 | 1039.42 ± 1.5
308.15 K, x1 = 0.7496 | 1013.47 ± 1.5 | 1018.4 ± 1.5 | 1023.27 ± 1.5 | 1027.93 ± 1.5 | 1032.35 ± 1.5 | 1036.65 ± 1.5 | 1040.72 ± 1.5 | 1044.41 ± 1.5 | 1048.05 ± 1.5
308.15 K, x1 = 0.799 | 1021.43 ± 1.5 | 1026.37 ± 1.5 | 1031.19 ± 1.5 | 1035.85 ± 1.5 | 1040.27 ± 1.5 | 1044.57 ± 1.5 | 1048.66 ± 1.5 | 1052.34 ± 1.5 | 1055.98 ± 1.6
308.15 K, x1 = 0.837 | 1027.27 ± 1.5 | 1032.2 ± 1.5 | 1037.04 ± 1.5 | 1041.64 ± 1.5 | 1046.06 ± 1.5 | 1050.37 ± 1.5 | 1054.46 ± 1.5 | 1058.14 ± 1.6 | 1061.73 ± 1.6
308.15 K, x1 = 0.9093 | 1037.72 ± 1.5 | 1042.65 ± 1.5 | 1047.49 ± 1.5 | 1052.1 ± 1.5 | 1056.52 ± 1.6 | 1060.79 ± 1.6 | 1064.88 ± 1.6 | 1068.56 ± 1.6 | 1072.16 ± 1.6
308.15 K, x1 = 0.9239 | 1039.75 ± 1.5 | 1044.68 ± 1.5 | 1049.52 ± 1.5 | 1054.13 ± 1.5 | 1058.56 ± 1.6 | 1062.82 ± 1.6 | 1066.87 ± 1.6 | 1070.55 ± 1.6 | 1074.15 ± 1.6
308.15 K, x1 = 0.9575 | 1044.31 ± 1.5 | 1049.24 ± 1.5 | 1054.08 ± 1.5 | 1058.69 ± 1.6 | 1063.12 ± 1.6 | 1067.39 ± 1.6 | 1071.43 ± 1.6 | 1075.12 ± 1.6 | 1078.72 ± 1.6
308.15 K, x1 = 0.9861 | 1048.07 ± 1.5 | 1053 ± 1.5 | 1057.85 ± 1.6 | 1062.46 ± 1.6 | 1066.89 ± 1.6 | 1071.16 ± 1.6 | 1075.26 ± 1.6 | 1078.94 ± 1.6 | 1082.54 ± 1.6
308.15 K, x1 = 1 | 1049.91 ± 0.56 | 1054.84 ± 0.56 | 1059.69 ± 0.57 | 1064.3 ± 0.58 | 1068.73 ± 0.59 | 1073 ± 0.6 | 1077.1 ± 0.61 | 1080.78 ± 0.62 | 1084.38 ± 0.63
